Among the test systems are HOP-92 NSCLC; SK-MEL-2 melanoma; NCI/ADR-RES ovarian; UO-31 renal; MDA-N; SF-295 CNS; SK-MEL-28 melanoma; PC-3 prostate; LOX IMVI melanoma; HT29 colon; SF-268 CNS; NCI-H23 lung; UACC-62 melanoma; COLO 205 colon; T-47D breast; CAKI-1 renal; NCI-H226 lung.
Holding throughout (experiment): NCI anticancer screen, dose series, 48 h

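Values below derive from 48-hour exposures of cells grown in 96-well plates, with endpoints linearly interpolated between the two concentrations bracketing the appropriate inhibition level. The concentration for 50% growth inhibition is given as GI50. At the TGI there is no net growth.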

Regarding `N#Cc1ccc(OCc2nc3cc(C(F)(F)F)ccc3nc2-c2ccccc2)cc1`, the TGI in the assay on HOP-92 NSCLC, in the assay with SK-MEL-2 melanoma, in the assay on NCI/ADR-RES ovarian, in the assay with UO-31 renal, with MDA-N and in the assay on SF-295 CNS was above 100 µM in each case. Also, the TGI in the assay on SK-MEL-28 melanoma, with PC-3 prostate, in the assay with LOX IMVI melanoma, in the assay with HT29 colon, in the assay on SF-268 CNS and in the assay on NCI-H23 lung was above 100 µM each time. Moreover, the TGI in the assay with UACC-62 melanoma, in the assay with COLO 205 colon, with T-47D breast and with CAKI-1 renal was above 100 µM each time.

With `COC(=O)c1cc(C#Cc2cc(OC)ccc2OC)ccc1OC`, the TGI with HOP-92 NSCLC was 85.9 µM; with SK-MEL-2 melanoma it was above 100 µM; with NCI/ADR-RES ovarian, above 100 µM; in the assay with UO-31 renal it was above 100 µM; in the assay on MDA-N it was above 100 µM; in the assay with SK-MEL-28 melanoma, above 100 µM. For the same compound, the TGI in the assay on PC-3 prostate, with LOX IMVI melanoma, with HT29 colon, with SF-268 CNS, with NCI-H23 lung and in the assay on NCI-H226 lung was above 100 µM in each case. Further, the TGI was above 100 µM in the assay with UACC-62 melanoma, 52.3 µM with COLO 205 colon, 34.5 µM in the assay with T-47D breast and above 100 µM in the assay with CAKI-1 renal. In the assay on UACC-62 melanoma, the GI50 was 29.3 µM.

`CCC(CCCC[C@@H]1CC[C@H]2CC(=O)C[C@@H]12)OC` (some centres undefined): the TGI in the assay with HOP-92 NSCLC, with SK-MEL-2 melanoma, in the assay on NCI/ADR-RES ovarian, in the assay with MDA-N, in the assay with SF-295 CNS and in the assay on SK-MEL-28 melanoma was above 100 µM throughout. Also, the TGI in the assay on PC-3 prostate, in the assay on LOX IMVI melanoma, in the assay with HT29 colon, in the assay on SF-268 CNS, with NCI-H23 lung and in the assay with NCI-H226 lung was above 100 µM each time. In addition, the TGI with UACC-62 melanoma, in the assay on COLO 205 colon, with T-47D breast and in the assay on CAKI-1 renal was above 100 µM throughout.

In the case of `S=c1[nH]c(=S)c2cc(Sc3ccc4[nH]c(=S)[nH]c(=S)c4c3)ccc2[nH]1`, the TGI with HOP-92 NSCLC is 57.4 µM; in the assay on SK-MEL-2 melanoma, above 100 µM; with NCI/ADR-RES ovarian it was above 100 µM; in the assay on UO-31 renal, 82.4 µM; with MDA-N, above 100 µM; in the assay with SF-295 CNS, 47.1 µM. Further, the TGI is above 100 µM in the assay with SK-MEL-28 melanoma; above 100 µM with PC-3 prostate; above 100 µM in the assay with HT29 colon; 68 µM with SF-268 CNS; 51.4 µM with NCI-H23 lung; 52.5 µM with NCI-H226 lung. Moreover, the TGI with UACC-62 melanoma is 36.3 µM; in the assay with COLO 205 colon, 52.4 µM; in the assay with T-47D breast, above 100 µM; in the assay with CAKI-1 renal it was 83.7 µM.

As to `C[Si](C)(OCCS(=O)(=O)O)C1S(=O)(=O)OCCOS1(=O)=O`, the TGI with HOP-92 NSCLC is above 100 µM; with NCI/ADR-RES ovarian, above 100 µM; in the assay with UO-31 renal it was above 100 µM; in the assay on MDA-N, above 100 µM; in the assay on SF-295 CNS, 31.8 µM; in the assay with SK-MEL-28 melanoma it was above 100 µM. Moreover, the TGI in the assay on PC-3 prostate, in the assay on LOX IMVI melanoma, with HT29 colon, with SF-268 CNS, in the assay on NCI-H23 lung and in the assay on NCI-H226 lung was above 100 µM throughout. The TGI with UACC-62 melanoma is above 100 µM; in the assay on COLO 205 colon, above 100 µM; in the assay with T-47D breast, above 100 µM; in the assay with CAKI-1 renal, 84 µM.

Turning to `COc1cc2c(cc1OC)CC(N=[N+]=[N-])c1cc(OC)c(OC)cc1/C=C\2` (centres undefined), the TGI in the assay on HOP-92 NSCLC was above 100 µM; with SK-MEL-2 melanoma, above 100 µM; with NCI/ADR-RES ovarian it was above 100 µM; in the assay on UO-31 renal it was above 100 µM; with MDA-N, 25.2 µM; in the assay with SF-295 CNS, above 100 µM. The TGI in the assay with SK-MEL-28 melanoma, in the assay with PC-3 prostate, in the assay with LOX IMVI melanoma, with HT29 colon, in the assay with SF-268 CNS and in the assay with NCI-H226 lung was above 100 µM throughout. Besides, the TGI in the assay with UACC-62 melanoma is above 100 µM; with COLO 205 colon, above 100 µM; with T-47D breast, above 100 µM; in the assay on CAKI-1 renal, 95.3 µM.

For the compound `CCC(=O)O[C@H]1CC[C@H]2[C@@H]3CCC4=C/C(=N/NC(=O)c5cccc6c(=O)c7ccccc7[nH]c56)CC[C@]4(C)[C@H]3CC[C@]12C`, the TGI with HOP-92 NSCLC, with SK-MEL-2 melanoma, with NCI/ADR-RES ovarian, with UO-31 renal, in the assay on MDA-N and in the assay with SF-295 CNS was above 25 µM in each case. Also, the TGI with SK-MEL-28 melanoma, with PC-3 prostate, in the assay with LOX IMVI melanoma, with HT29 colon, with SF-268 CNS and with NCI-H23 lung was above 25 µM each time. Moreover, the TGI in the assay on NCI-H226 lung, with UACC-62 melanoma, in the assay with COLO 205 colon and in the assay with T-47D breast was above 25 µM each time.

Turning to `Cc1ccc(Nc2cc(=O)[nH]c(=S)[nH]2)cc1`, the TGI with HOP-92 NSCLC, in the assay with SK-MEL-2 melanoma, in the assay on NCI/ADR-RES ovarian, in the assay with UO-31 renal, in the assay on MDA-N and with SF-295 CNS was above 100 µM throughout. For the same compound, the TGI in the assay with PC-3 prostate, in the assay on LOX IMVI melanoma, in the assay with HT29 colon, with SF-268 CNS, in the assay with NCI-H23 lung and in the assay on NCI-H226 lung was above 100 µM throughout. Further, the TGI with UACC-62 melanoma, with COLO 205 colon, in the assay with T-47D breast and in the assay on CAKI-1 renal was above 100 µM in each case.
